# Measurements as given in patent US12398140B2, “Substituted pyrrolo [2,3-d]pyrimidines for treating familial dysautonomia” (PTC THERAPEUTICS, INC., priority 2019, dated 2025).
# Test system: Elongator complex protein 1 (ELPI, also referred to as IKBKAP)
# Assay: IKBKAP-HTRF assay (IKBKAP protein in lysates of FD patient-derived fibroblasts)
# Assay type: cell-based, human
# Details: FD patient-derived fibroblasts GM04589, 48 hours, 7-point concentration curve
# Experimental: The assay is used for the quantitative determination of Elongator complex protein 1 (ELPI, also referred to as IKBKAP) concentration in cell lysates using the HTRF® (Homogeneous Time-Resolved Fluorescence) technology. IKBKAP is detected in a sandwich HTRF assay by use of an anti-IKAP antibody labeled with a donor and an anti-IKAP antibody labeled with an acceptor.
# Cells were thawed and incubated in DMEM-10% FBS for 72 hours. Cells were trypsinized, counted, and re-suspended to a concentration of 50,000 cells/ml in DMEM-10% FBS. A 199 μL aliquot of the cell suspensions were plated at 10,000 cells per well in a 96 well microtiter plate and incubated for 3 to 5 hours. […] Test compounds were serially diluted 3.16-fold in 100% DMSO to generate a 7-point concentration curve. A 1 μL aliquot of 200× compound solution was transferred to cell-containing wells, and cells were incubated for 48 hours in a cell culture incubator (37° C., 5% CO2, 100% relative humidity). Triplicate samples were set up for each compound concentration. After 48 hours, the supernatant was removed from the cells and 50 μL of the 1×LB4 lysis buffer, containing protease inhibitors, was added to the cells and incubated with shaking at room temperature for 1 hour. A 36 μL aliquot of this lysate was subsequently transferred to the 384-well plate containing 4 μL of the antibody solution (1:50 dilution of anti IKAP d2 and anti-IKAP K(9+8) in detection buffer). The 384-well plate was then centrifuged for 1 minute to bring the solutions to the bottom of the plate and incubated overnight at 4° C. Fluorescence for each well of the plate at 665 nm and 620 nm was measured was on the EnVision plate reader (Perkin Elmer). The ΔF for each sample is calculated by:
# [formula] wherein Signal is the normalized fluorescence for each sample well and Blank is the average normalized average fluorescence for the Blank control wells.
# The maximum fold increase (MFI) in IKBKAP protein abundance for compounds of Formula (I) or a form thereof relative to the vehicle control are provided in Table 1. MFI was calculated by dividing the ΔF value for each sample well by the sample ΔF for the vehicle control wells.
# The EC2x for IKBKAP protein expression obtained from the 7-point concentration curve generated for each test compound according to the protocol in Biological Example 1 are also provided in Table 1. The term “EC2x for IKBKAP protein expression” is defined as the concentration of test compound that is effective in producing two times the amount of IKBKAP protein in a FD patient cell compared to the amount produced from the DMSO vehicle control.
Compound,EC2x for IKBKAP protein expression (concentration producing two times the amount of IKBKAP protein vs DMSO vehicle control),MFI (maximum fold increase in IKBKAP protein abundance relative to the vehicle control)
"C[C@H](N)Cc1cc2c(NCc3cccs3)nc(Cl)nc2[nH]1.Cl [Cpd 25, 6-[(2S)-2-aminopropyl]-2-chloro-N-[(thiophen-2-yl)methyl]-7H-pyrrolo[2,3-d]pyrimidin-4-amine hydrochloride]",**** (between >0.005 μM and ≤0.02 μM is indicated by four stars (****)),***** (>4.9 is indicated by five stars (*****))
"CC(C)[C@H](N)Cc1cc2c(NCc3ccncc3)nc(Cl)nc2[nH]1.Cl.Cl [Cpd 12, 6-[(2R)-2-amino-3-methylbutyl]-2-chloro-N-[(pyridin-4-yl)methyl]-7H-pyrrolo[2,3-d]pyrimidin-4-amine dihydrochloride]",*** (between >0.02 μM and ≤0.5 μM is indicated by three stars (***)),***** (>4.9 is indicated by five stars (*****))
"C[C@H](N)Cc1cc2c(NCc3ccncc3)nc(Cl)nc2[nH]1 [Cpd 20, 6-[(2S)-2-aminopropyl]-2-chloro-N-[(pyridin-4-yl)methyl]-7H-pyrrolo[2,3-d]pyrimidin-4-amine]",*** (between >0.02 μM and ≤0.5 μM is indicated by three stars (***)),***** (>4.9 is indicated by five stars (*****))
"CNCCc1[nH]c2nc(Cl)nc(NCc3ccco3)c2c1F.Cl [Cpd 6, 2-chloro-5-fluoro-N-[(furan-2-yl)methyl]-6-[2-(methylamino)ethyl]-7H-pyrrolo[2,3-d]pyrimidin-4-amine hydrochloride]",*** (between >0.02 μM and ≤0.5 μM is indicated by three stars (***)),***** (>4.9 is indicated by five stars (*****))
"CCn1c(C[C@H](C)N)c(F)c2c(NCc3ccco3)nc(Cl)nc21.Cl [Cpd 42, 6-[(2S)-2-aminopropyl]-2-chloro-7-ethyl-5-fluoro-N-[(furan-2-yl)methyl]-7H-pyrrolo[2,3-d]pyrimidin-4-amine hydrochloride]",*** (between >0.02 μM and ≤0.5 μM is indicated by three stars (***)),** (between >1.9 and ≤2.9 is indicated by two stars (**))
"Cc1nc(NCc2ccco2)c2c(F)c(C[C@H](C)N)[nH]c2n1.Cl [Cpd 34, 6-[(2S)-2-aminopropyl]-5-fluoro-N-[(furan-2-yl)methyl]-2-methyl-7H-pyrrolo[2,3-d]pyrimidin-4-amine hydrochloride]",*** (between >0.02 μM and ≤0.5 μM is indicated by three stars (***)),***** (>4.9 is indicated by five stars (*****))
"C[C@H](N)Cc1c(F)c2c(NCc3cccs3)nc(Cl)nc2n1C.Cl [Cpd 49, 6-[(2S)-2-aminopropyl]-2-chloro-5-fluoro-7-methyl-N-[(thiophen-2-yl)methyl]-7H-pyrrolo[2,3-d]pyrimidin-4-amine hydrochloride]",**** (between >0.005 μM and ≤0.02 μM is indicated by four stars (****)),***** (>4.9 is indicated by five stars (*****))
"C[C@H](N)Cc1[nH]c2nc(Cl)nc(NCc3cccnc3)c2c1F.Cl.Cl [Cpd 56, 6-[(2S)-2-aminopropyl]-2-chloro-5-fluoro-N-[(pyridin-3-yl)methyl]-7H-pyrrolo[2,3-d]pyrimidin-4-amine dihydrochloride]",* (An EC2x>1 μM is indicated by one star (*)),* (An MFI≤1.9 is indicated by one star (*))
"C[C@H](N)Cc1cc2c(NCc3ncco3)nc(Cl)nc2[nH]1.Cl [Cpd 27, 6-[(2S)-2-aminopropyl]-2-chloro-N-[(1,3-oxazol-2-yl)methyl]-7H-pyrrolo[2,3-d]pyrimidin-4-amine hydrochloride]",*** (between >0.02 μM and ≤0.5 μM is indicated by three stars (***)),***** (>4.9 is indicated by five stars (*****))
"COC[C@H](N)Cc1c(F)c2c(NCc3ccco3)nc(Cl)nc2n1C.Cl [Cpd 37, 6-[(2R)-2-amino-3-methoxypropyl]-2-chloro-5-fluoro-N-[(furan-2-yl)methyl]-7-methyl-7H-pyrrolo[2,3-d]pyrimidin-4-amine hydrochloride]",*** (between >0.02 μM and ≤0.5 μM is indicated by three stars (***)),***** (>4.9 is indicated by five stars (*****))
"C[C@H](N)Cc1c(F)c2c(NCc3ccco3)nc(Cl)nc2n1C.Cl [Cpd 24, 6-[(2S)-2-aminopropyl]-2-chloro-5-fluoro-N-[(furan-2-yl)methyl]-7-methyl-7H-pyrrolo[2,3-d]pyrimidin-4-amine hydrochloride]",**** (between >0.005 μM and ≤0.02 μM is indicated by four stars (****)),***** (>4.9 is indicated by five stars (*****))
"CCCCc1c(C[C@H](C)N)[nH]c2nc(Cl)nc(NCc3ccco3)c12.Cl [Cpd 28, 6-[(2S)-2-aminopropyl]-5-butyl-2-chloro-N-[(furan-2-yl)methyl]-7H-pyrrolo[2,3-d]pyrimidin-4-amine hydrochloride]",* (An EC2x>1 μM is indicated by one star (*)),* (An MFI≤1.9 is indicated by one star (*))
"COc1ccc(-n2c(C[C@H](C)N)c(F)c3c(NCc4cccs4)nc(Cl)nc32)cc1.Cl [Cpd 47, 6-[(2S)-2-aminopropyl]-2-chloro-5-fluoro-7-(4-methoxyphenyl)-N-[(thiophen-2-yl)methyl]-7H-pyrrolo[2,3-d]pyrimidin-4-amine hydrochloride]",* (An EC2x>1 μM is indicated by one star (*)),* (An MFI≤1.9 is indicated by one star (*))
"C[C@H](N)Cc1[nH]c2nc(Cl)nc(NCc3ccccc3F)c2c1F.Cl [Cpd 52, 6-[(2S)-2-aminopropyl]-2-chloro-5-fluoro-N-[(2-fluorophenyl)methyl]-7H-pyrrolo[2,3-d]pyrimidin-4-amine hydrochloride]",*** (between >0.02 μM and ≤0.5 μM is indicated by three stars (***)),**** (between >3.9 and ≤4.9 is indicated by four stars (****))
"Cl.Cn1c(C[C@@H](N)CO)c(F)c2c(NCc3ccco3)nc(Cl)nc21 [Cpd 39, (2R)-2-amino-3-(2-chloro-5-fluoro-4-{[(furan-2-yl)methyl]amino}-7-methyl-7H-pyrrolo[2,3-d]pyrimidin-6-yl)propan-1-ol hydrochloride]",**** (between >0.005 μM and ≤0.02 μM is indicated by four stars (****)),***** (>4.9 is indicated by five stars (*****))
"CC(C)[C@H](N)Cc1[nH]c2nc(Cl)nc(NCc3ccco3)c2c1F.Cl [Cpd 14, 6-[(2R)-2-amino-3-methylbutyl]-2-chloro-5-fluoro-N-[(furan-2-yl)methyl]-7H-pyrrolo[2,3-d]pyrimidin-4-amine hydrochloride]",**** (between >0.005 μM and ≤0.02 μM is indicated by four stars (****)),***** (>4.9 is indicated by five stars (*****))
"C[C@H](N)Cc1c(F)c2c(NCc3ccccc3F)nc(Cl)nc2n1C.Cl [Cpd 53, 6-[(2S)-2-aminopropyl]-2-chloro-5-fluoro-N-[(2-fluorophenyl)methyl]-7-methyl-7H-pyrrolo[2,3-d]pyrimidin-4-amine hydrochloride]",*** (between >0.02 μM and ≤0.5 μM is indicated by three stars (***)),**** (between >3.9 and ≤4.9 is indicated by four stars (****))
